Values of other authors in patent US20140088035A1, “TREATING SCHIZOPHRENIA” (THE GENERAL HOSPITAL CORPORATION, priority 2010, published 2014).

System: schizophrenia patients
Conditions: vitamin supplementation regimens; Levine et al. 2006, Godfrey et al. 1990

**Q.** With `Nc1nc2ncc(CNc3ccc(C(=O)N[C@@H](CCC(=O)O)C(=O)O)cc3)nc2c(=O)[nH]1` [folate, pteroyl-L-glutamic acid] as the molecule, how does the “symptomatic improvement in schizophrenia patients” value read?
**A.** The value was “associated with symptomatic improvement”.
